Data published in patent publication US6645983B1, “Pharmaceutical compositions comprising 4-quinolones for treating cancers” (Laboratoire L. Lafon, priority 1999, dated 2003).
Read-outs that look alike come from different tables or passages of the source.

Assays:
J82 = assay: MTT test, cytotoxic activity on non-clonogenic cell lines; type: cell-based; details: Homo sapiens, 10^−5 M, mean value
Outline: (§1)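 Human bladder cancer lines were seeded at 20 000–50 000 cells/ml and, after 24 h, exposed to compounds at 10^−5 to 10^−10 M against a solvent control. Formazan was dissolved in DMSO and viability was read by spectrophotometric optical density.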

T24 = assay: as above; type: cell-based; details: Homo sapiens, T-24, 10^−5 M, mean value
Outline: as §1

MCF7 = assay: as above; type: cell-based; details: Homo sapiens, 10^−5 M, mean value
Outline: (§2)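 Human cancer lines seeded at 20 000–50 000 cells/ml, allowed 24 h to attach, then exposed to compounds at 10^−5 to 10^−10 M versus solvent control.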

U-373MG = assay: as above; type: cell-based; details: Homo sapiens, U373 MG, 10^−5 M, mean value
Outline: as §2

LoVo = assay: as above; type: cell-based; details: Homo sapiens, 10^−5 M, mean value
Outline: as §2

HCT-15 = assay: as above; type: cell-based; details: Homo sapiens, mean value
Outline: as §2

PC-3 = assay: as above; type: cell-based; details: Homo sapiens, 10^−5 M, mean value
Outline: as §2

U-87MG = assay: as above; type: cell-based; details: Homo sapiens, 10^−5 M, mean value
Outline: as §2

A-427 = assay: as above; type: cell-based; details: Homo sapiens, 10^−5 M, mean value
Outline: as §2

T-47D = assay: as above; type: cell-based; details: Homo sapiens, T47D, 10^−5 M, mean value
Outline: as §2

A549 = assay: as above; type: cell-based; details: Homo sapiens, 10^−5 M, mean value
Outline: as §2

[1] = Determination of the maximum tolerated dose (MTD); details: B6D2F1/Jico, mouse, in vivo, ip; single intraperitoneal administration, doses 2.5 to 160 mg/kg, survival over 14 days
Outline: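 Mice were 4- to 6-week-old B6D2F1/Jico. They received a single intraperitoneal dose of 2.5 to 160 mg/kg, and survival and body weight were followed for 14 days. MTD is given in mg/kg and is capped at 160 mg/kg by default.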

SW1088 = assay: MTT test, cytotoxic activity on non-clonogenic cell lines; type: cell-based; details: Homo sapiens, 10^−5 M, mean value
Outline: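 Human astrocytoma SW1088 cells seeded, grown 24 h at 37° C, 5% CO2, then exposed to compounds at 10^−5 to 10^−10 M versus solvent control. Viability by MTT reduction: 3 h MTT incubation, formazan dissolved in DMSO and read by spectrophotometry.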

[2] = 72 hours of incubation, control condition = 100%, read-out: mean optical density as percentage of control, J82
[3] = 72 hours of incubation, control condition = 100%, read-out: mean optical density as percentage of control, T24
[4] = 72 hours of incubation, control condition = 100%, read-out: mean optical density as percentage of control, MCF7
[5] = 72 hours of incubation, control condition = 100%, read-out: mean optical density as percentage of control, U-373MG
[6] = 72 hours of incubation, control condition = 100%, read-out: mean optical density as percentage of control, LoVo
[7] = 10^−5 M, 72 hours of incubation, control condition = 100%, read-out: mean optical density as percentage of control, HCT-16
[8] = 72 hours of incubation, control condition = 100%, read-out: mean optical density as percentage of control, PC-3
[9] = U-87 MG, 72 hours of incubation, control condition = 100%, read-out: mean optical density as percentage of control, U-87MG
[10] = 72 hours of incubation, control condition = 100%, read-out: mean optical density as percentage of control, A-427
[11] = 72 hours of incubation, control condition = 100%, read-out: mean optical density as percentage of control, T-47D
[12] = 72 hours of incubation, control condition = 100%, read-out: mean optical density as percentage of control, A549
[13] = 72 hours of incubation, control condition = 100%, read-out: mean optical density as percentage of control, SW1088
[14] = 72 hours incubation, MTT, read-out: mean optical density, expressed as percentage relative to the mean optical density under the control condition (100%)
[15] = T24, 72 hours incubation, MTT, read-out: mean optical density, expressed as percentage relative to the mean optical density under the control condition (100%)
[16] = U-373MG, 72 hours incubation, MTT, read-out: mean optical density, expressed as percentage relative to the mean optical density under the control condition (100%)
[17] = HCT-16, 10^−5 M, 72 hours incubation, MTT, read-out: mean optical density, expressed as percentage relative to the mean optical density under the control condition (100%)
[18] = U-87MG, 72 hours incubation, MTT, read-out: mean optical density, expressed as percentage relative to the mean optical density under the control condition (100%)
[19] = T-47D, 72 hours incubation, MTT, read-out: mean optical density, expressed as percentage relative to the mean optical density under the control condition (100%)

Structure (SMILES)	viability at 10 µM (J82; [2]) [%]	viability at 10 µM (T24; [3]) [%]	viability at 10 µM (MCF7; [4]) [%]	viability at 10 µM (U-373MG; [5]) [%]	viability at 10 µM (LoVo; [6]) [%]	viability at 10 µM (HCT-15; [7]) [%]	viability at 10 µM (PC-3; [8]) [%]	viability at 10 µM (U-87MG; [9]) [%]	viability at 10 µM (A-427; [10]) [%]	viability at 10 µM (T-47D; [11]) [%]	viability at 10 µM (A549; [12]) [%]	MTD at 14 day [1] [mg/kg]	viability at 10 µM (SW1088; [13]) [%]	viability at 10 µM (J82; [14]) [%]	viability at 10 µM (T24; [15]) [%]	viability at 10 µM (MCF7; [14]) [%]	viability at 10 µM (U-373MG; [16]) [%]	viability at 10 µM (LoVo; [14]) [%]	viability at 10 µM (HCT-15; [17]) [%]	viability at 10 µM (PC-3; [14]) [%]	also measured
COc1ccc(-c2cn(CC#N)c3c(OC)ccc(OC)c3c2=O)cc1 [CRL8413, [5,8-Dimethoxy-3-(4-methoxyphenyl)-4-oxo-1,4-dihydro-1-quinolinyl]acetonitrile]	88.4	71.8	67.2	66.4	85.6	65.9	63.4	56	73.3	112	48.7	> 160	83.7	–	–	–	–	–	–	–	–
CCc1ccc(OC)c2c1c(=O)c(-c1ccc(OC)cc1)cn2C [CRL8414, 5-Ethyl-8-methoxy-3-(4-methoxyphenyl)-1-methyl-1,4-dihydro-4-quinolinone]	110	97.5	104	81.7	84.2	83.4	94.3	81.2	82.2	96.2	71.8	> 160	94.4	–	–	–	–	–	–	–	–
COc1ccc(-c2cn(CCCC#N)c3cc(OC)cc(OC)c3c2=O)cc1 [CRL8420, 4-[5,7-Dimethoxy-3-(4-methoxyphenyl)-4-oxo-1,4-dihydro-1-quinolinyl]butanenitrile]	92.3	111	103	96.6	81.2	109	86	92.9	102	104	94.5	> 160	117	–	–	–	–	–	–	–	–
COc1ccc(-c2cn(C)c3cc(OC)cc(NCc4ccccc4)c3c2=O)cc1 [CRL8424, 5-Benzylamino-7-methoxy-3-(4-methoxyphenyl)-1-methyl-1,4-dihydro-4-quinolinone]	77.9	102	95.4	82.5	69.8	49.8	108	87.9	72.7	108	111	> 160	82.7	–	–	–	–	–	–	–	–
COc1ccc(-c2cn(C)c3cc(OC)cc(N4CCCCC4)c3c2=O)cc1 [CRL8425, 7-Methoxy-3-(4-methoxyphenyl)-1-methyl-5-piperidino-1,4-dihydro-4-quinolinone]	71.9	98.2	102	82.6	71	78.9	88.2	92.6	81.9	97.3	80.2	> 160	85.4	–	–	–	–	–	–	–	–
COc1ccc(-c2cn(C)c3cc(OC)cc(N4CCCC4)c3c2=O)cc1 [CRL8434, 7-Methoxy-3-(4-methoxyphenyl)-1-methyl-5-pyrrolidino-1,4-dihydro-4-quinolinone]	99.3	98.7	96.2	92.2	106	101	113	89.7	110	85.8	99	> 160	99.9	–	–	–	–	–	–	–	–
COc1ccc(-c2cn(C)c3cc(OC)cc(N4CCOCC4)c3c2=O)cc1 [CRL8435, 7-Methoxy-3-(4-methoxyphenyl)-1-methyl-5-morpholino-1,4-dihydro-4-quinolinone]	100	89.4	93.6	85	106	101	105	85	115	95.7	96.7	> 160	97.3	–	–	–	–	–	–	–	–
COc1ccc(-c2cn(C)c3cc(OC)cc(N4CCN(C)CC4)c3c2=O)cc1 [CRL8436, 7-Methoxy-3-(4-methoxyphenyl)-1-methyl-5-(1-methyl-piperazino)-1,4-dihydro-4-quinolinone]	–	–	–	–	–	–	–	–	–	–	–	> 160	–	101	99.2	96.4	97.2	108	101	99.9	viability at 10 µM (U-87MG; [18]): 97.3%; viability at 10 µM (A-427; [14]): 109%; viability at 10 µM (T-47D; [19]): 89.4%; viability at 10 µM (A549; [14]): 101%; viability at 10 µM (SW1088; [14]): 102%
CCN(CC)c1cc(OC)cc2c1c(=O)c(-c1ccc(OC)cc1)cn2C [CRL8437, 5-Diethylamino-7-methoxy-3-(4-methoxyphenyl)-1-methyl-1,4-dihydro-4-quinolinone]	–	–	–	–	–	–	–	–	–	–	–	> 160	–	98.7	93.1	97.7	93.2	105	110	94.1	viability at 10 µM (U-87MG; [18]): 99.4%; viability at 10 µM (A-427; [14]): 108%; viability at 10 µM (T-47D; [19]): 92.1%; viability at 10 µM (A549; [14]): 102%; viability at 10 µM (SW1088; [14]): 99.7%
CC(=O)Oc1ccc(-c2cn(C)c3c(OC(C)=O)ccc(OC(C)=O)c3c2=O)cc1 [CRL8460, 5,8-Diacetoxy-3-[4-(acetoxy)phenyl]-1-methyl-1,4-dihydro-4-quinolmone acetate]	–	–	–	–	–	–	–	–	–	–	–	> 160	–	45.7	14.2	35	52.2	25.5	53.7	35.2	viability at 10 µM (U-87MG; [18]): 71.5%; viability at 10 µM (A-427; [14]): 24.9%; viability at 10 µM (T-47D; [19]): 56.2%; viability at 10 µM (A549; [14]): 43.1%; viability at 10 µM (SW1088; [14]): 65.7%
COc1ccc(-c2cn(C)c3cc(OC)cc(N)c3c2=O)cc1 [CRL8461, 5-Amino-7-methoxy-3-(4-methoxyphenyl)-1-methyl-1,4-dihydro-4-quinolinone]	–	–	–	–	–	–	–	–	–	–	–	> 160	–	94.9	107	68.2	91.6	92.7	88.5	91.9	viability at 10 µM (U-87MG; [18]): 77.2%; viability at 10 µM (A-427; [14]): 90.5%; viability at 10 µM (T-47D; [19]): 51.9%; viability at 10 µM (A549; [14]): 99.7%; viability at 10 µM (SW1088; [14]): 91.9%
